Test results from patent US8466154B2, “Methods and compositions related to wrapping of dehydrons” (The Board of Regents of the University of Texas System, priority 2006, dated 2013).
One block for each molecule: values may come before it.

Tests used:
[1] = tested on: K562 cells; experiment: Alamar blue proliferation assay of liposomal WBZ—1 formulations; format: cell-based; conditions: calculated from previous experiments with a similar system
Description: FIG. 12. K562 cells derived from chronic myeloid leukemia (CML) tumors and treated with WBZ—1 liposomal formulation using drug:lipid ratio 1:10. Cells were plated in a 96 well plate at a concentration of 10,000 cells per well and were treated 2 hours later. After 48 hours incubation, an Alamar blue assay was performed. Cells proliferation was expressed as the percentage of proliferating cells compared to the untreated. […] (*) This concentration is the maximum uptake that was calculated based on previous work using a similar system (Tari, 1996). The actual cellular uptake can be considerable lower, even 10^−3 times the effective concentration. The inventors can determine the exact uptake in future experiments using a radiolabeled lipid and prototype compound.
This modification should lead to a selective inhibition of the Bcr-Abl kinase, and indeed it does. […] In order to determine the best lipid formulation to be used, the inventors tested different WBZ—1:MDPC ratios. […] Cell proliferation inhibition was determined by Alamar blue assay after 48 hours of incubation and calculated as percentage of inhibition comparing with the untreated control. All formulations were nontoxic for the cells and a dose response curve was observed. The effective concentration ranges between 0.1 and 1 μM regardless of the lipid:drug ratio used. […]

[2] = solubility (observation); format: physicochemical
[3] = tested on: brain natriuretic peptide (BNP); experiment: RT-PCR of BNP mRNA in left ventricle of treated mice; conditions: GIST model mice after therapy
[4] = tested on: ERK1/2; experiment: Western blot of phosphorylated kinases in neonatal rat ventricular myocytes (NRVM); format: cell-based; conditions: 1-50 μM, 24 h, compared to untreated cultures
Description: This protective role of WBZ—4 has also been validated in vivo. Animals used in these studies were handled in accordance with National Institutes of Health “Guide for the Care and Use of Laboratory Animals” [Department of Health and Human Services Publication No. (NIH) 85-23, Revised 1985]. […] NRVM were isolated from the hearts of 2 day-old Sprague-Dawley rat pups via collagenase digestion as previously described (Samarel and Engelmann, 1991). Dissociated cells were pre-plated for 1 hour in serum-free PC-1 medium to selectively remove nonmuscle cells. Myocytes were then plated in PC-1 medium at a density of 1600 cells per mm^2 onto collagen-coated, plastic 35-mm dishes, and left undisturbed in a 5% CO2 incubator for 24 h. Unattached cells were removed by aspiration, and the attached cells were maintained in a solution of DMEM/Medium 199 (4:1) containing antibiotic/antimycotic solution for 24 h. […] NRVM were homogenized in lysis buffer (Schlaepfer and Hunter, 1996). Equal amounts of extracted proteins were separated on 10% SDS-polyacrylamide gels with 5% stacking gels. […] Primary antibody binding was detected with horseradish-peroxidase conjugated goat anti-mouse or goat anti-rabbit secondary antibody, and visualized by enhanced chemiluminescence.

[5] = target: T1, C-Kit (Homo sapiens, UniProt P10721, K642E); experiment: Western blot of C-Kit phosphorylation (Tyr703, Tyr721) in ST882 cells; format: cell-based; conditions: 6 hours, read-out: inhibitory impact on C-Kit phosphorylation in GIST cells
T1 construct: endogenous in cells; host or cells: ST882 (GIST882) cells
Description: A Western blot assay on treated cancer-derived cell lines (FIGS. 8C and 8D) was performed to determine the in-cell specificity of WBZ—4. […] After allowing the cells to attach for 24 hours, the cells were treated with 1 μM of WBZ—4 or Gleevec for 6 hours. For Western blotting, 50 μg of total protein were separated on a SDS-PAGE (Bio-Rad) and blotted onto nitrocellulose membranes (Bio-Rad Laboratories, Life Science Research, Hercules, Calif.). Antibodies used: anti phospho-c-Kit polyclonal antibody, Tyr703 and Tyr721 (Zymed Laboratories Inc., South San Francisco, Calif.), anti-c-Kit monoclonal antibody (E-1): sc-17806 (Santa Cruz Biotechnology) and anti β-actin monoclonal antibody (Sigma, St. Louis, Mo.). K562 cells were plated at 5×10^5 cells/well. […] Antibodies used: anti phospho-c-Abl (Tyr 412) monoclonal antibody 247C7 (Cell Signalling Technology Inc), anti-Abl monoclonal antibody (Sigma, St. Louis, Mo.).

[6] = tested on: JNK1/2; experiment: Western blot of phosphorylated kinases in neonatal rat ventricular myocytes (NRVM); format: cell-based; conditions: 1-50 μM, 24 h, compared to untreated cells
[7] = target: T2, Chk1 (Homo sapiens, UniProt O14757); experiment: kinetic spectrophotometric assay of phosphorylation rate; format: biochemical
T2 sequence (O14757 1-476): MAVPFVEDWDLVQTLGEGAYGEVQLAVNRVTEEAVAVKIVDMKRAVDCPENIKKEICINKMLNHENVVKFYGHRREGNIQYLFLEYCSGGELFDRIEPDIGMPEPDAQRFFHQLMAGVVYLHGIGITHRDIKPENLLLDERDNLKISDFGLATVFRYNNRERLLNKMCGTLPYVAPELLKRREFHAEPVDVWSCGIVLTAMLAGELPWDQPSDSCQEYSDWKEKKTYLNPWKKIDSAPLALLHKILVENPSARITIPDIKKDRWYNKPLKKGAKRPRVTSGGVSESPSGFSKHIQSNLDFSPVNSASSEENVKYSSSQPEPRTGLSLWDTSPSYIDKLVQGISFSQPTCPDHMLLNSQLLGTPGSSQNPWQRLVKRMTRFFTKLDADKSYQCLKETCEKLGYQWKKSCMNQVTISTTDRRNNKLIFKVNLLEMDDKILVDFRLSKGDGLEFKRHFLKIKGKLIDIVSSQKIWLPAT
From the text: (§1) To assess the specificity and affinity for Src, the staurosporine derivative is compared with the parental compound. […] Kinetic spectrophotometric assays where performed as indicated above. These assays were geared at measuring the phosphorylation rate of peptide substrates in the presence of the kinase inhibitor at different concentrations.

[8] = target: T3, PDK1 (Homo sapiens, UniProt O15530); experiment: as above; format: biochemical
T3 sequence (O15530 1-556): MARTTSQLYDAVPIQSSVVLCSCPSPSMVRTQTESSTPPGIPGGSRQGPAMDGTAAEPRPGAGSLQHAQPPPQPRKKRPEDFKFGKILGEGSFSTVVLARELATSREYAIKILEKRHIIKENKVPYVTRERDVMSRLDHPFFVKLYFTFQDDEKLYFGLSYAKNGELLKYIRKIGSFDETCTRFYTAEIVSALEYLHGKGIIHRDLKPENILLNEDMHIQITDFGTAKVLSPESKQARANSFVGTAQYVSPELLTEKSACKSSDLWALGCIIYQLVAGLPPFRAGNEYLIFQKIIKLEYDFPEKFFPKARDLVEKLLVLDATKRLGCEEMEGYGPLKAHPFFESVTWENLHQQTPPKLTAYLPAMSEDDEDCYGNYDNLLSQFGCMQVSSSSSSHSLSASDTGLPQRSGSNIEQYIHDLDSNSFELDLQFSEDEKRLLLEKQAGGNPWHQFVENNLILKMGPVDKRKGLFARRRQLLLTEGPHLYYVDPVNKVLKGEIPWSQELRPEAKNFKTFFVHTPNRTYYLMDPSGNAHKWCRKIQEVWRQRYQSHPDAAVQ
From the text: as §1

[9] = tested on: Src kinase; experiment: as above; format: biochemical
From the text: as §1

solubility [2]: insolubility
Compound: Cc1ccc(NC(=O)c2ccc(CN3CCN(C)CC3)cc2)cc1Nc1nccc(-c2cnccc2C)n1 [WBZ—1, N-{5-[4-(4-methylpiperazinemethyl)-benzoylamido]-2-methylphenyl}-4-[3-(4-methyl)-pyridyl]-2-pyrimidine amine]
uptake of WBZ—1 after 48 hours [1]: 72 pmol

Compound: Cc1ccc(NC(=O)c2ccc(CN3CCN(C)CC3)cc2)cc1Nc1nccc(-c2cccnc2)n1 [imatinib, reference compound]
BNP mRNA levels in the left ventricle, higher than untreated [3]: about 58%
phosphorylation state of ERK1/2 in cardiomyocytes [4]: increased
inhibition at 1 µM [5]: ~85%
JNK1/2 activation in cardiomyocytes [6]: activates JNKs

Compound: CN[C@@H]1C[C@H]2O[C@@](C)([C@@H]1OC)n1c3ccccc3c3c4c(c5c6ccccc6n2c5c31)C(=O)N(C)C4 [methylated staurosporine derivative]
inhibitory impact against Chk1 [7]: very low inhibitory impact
inhibitory impact against PDK1 [8]: very low inhibitory impact
inhibition of Src compared with staurosporine levels [9]: improved
